Patent US5137892A, “Quinoline, naphthyridine and pyridobenzoxazine derivatives” (Abbott Laboratories, priority 1990, dated 1992)
Read-outs that look alike come from different tables or passages of the source.

Tested on: Staphylococcus aureus NCTC 10649
Assay: In Vivo Antibacterial Activity, protection of CF-1 female mice from bacterial challenge
Design: species or system CF-1 female mice infected with Staphylococcus aureus
Conditions: 100 times the LD50 i.p., dosed at 1 and 5 hr after infection, mortality on sixth day
Protocol: The in vivo antibacterial activity of one of the compounds of the present invention was determined by studying the protection of CF-1 female mice from bacterial challenge. The test compound was 7-(2-dimethylaminomethyl-1,4-dioxa-7-azaspiro[4.4]non-7-yl)-6-fluoro-1-(2,4-difluorophenyl)-1,8-naphthyridine-3-carboxylic acid (prepared in Example 445). Aqueous solutions of the compound were made by dissolving it in dilute NaOH and diluting with distilled water to the desired volume.
The median lethal dose of the test organism was then determined as follows: After 18 hours incubation, a culture of Staphylococcus aureus NCTC 10649 was serially diluted by using 10-fold dilutions in 5% (w/v) hog gastric mucin. 0.5 mL samples, of dilution from 10^-1 to 10^-8, were injected intraperitoneally into mice. The LD50 for the test organism was calculated from the cumulative mortalities on the sixth day by the using the Reed and Muench procedure (Reed, L. J., and H. Muench, Amer. J. Hygiene, 27, 493 (1938)).
The 18 hour culture of the test organism was then diluted in 5% (w/v) hog gastric mucin to obtain 100 times the LD50, and 0.5 mL was injected intraperitoneally into mice. The mice were treated subcutaneously or orally with a specific amount of the test compound divided equally to be administered at 1 and 5 hr after infection. […]

Compound: CN(C)CC1COC2(CCN(c3nc4c(cc3F)c(=O)c(C(=O)O)cn4-c3ccc(F)cc3F)C2)O1 (centres unmarked) [Example 445]
- ED50 (NCTC10649, 144 h, oral, read-out: oral ED50): 6 mg/kg
- ED50 (NCTC10649, sc, 144 h, subcutaneous, read-out: subcutaneous ED50): 5 mg/kg
